# Reference: patent publication US6358885B1, “Substituted phenylheterocyclic herbicides” (Mississippi State University, priority 1992, dated 2002)
# Experiments:
# Test in all cases: Test G preemergence/postemergence greenhouse plant response rating 0 to 100
# [1] = system: alfalfa; format: in vivo, Medicago ativa; settings: 0 to 100 scale
# Description: (§1) Seeds, rhizomes, or plant parts of alfalfa (Medicago ativa), annual bluegrass (Poa annua), bermudagrass (Cynodon dactylon), broadleaf signalgrass (Brachiaria plantaginea), common purslane (Portulaca oleracea), common ragweed (Ambrosia elatior), […] (Paspalum dilatatum), goosegrass (Eleusine indica), guineagrass (Panicum maximum), […] exaltata), johnsongrass (Sorghum halepense), large crabgrass (Digitaria sanguinalis), peanut (Arachis hypoagaea), pitted morningglory (Ipomoea lacunosa), purple nutsedge (Cyperus rotundus), sandbur (Cenchrus echinatus), smooth crabgrass (Digitaria ischaemum) and yellow nutsedge (Cyperus esculentus) were planted into greenhouse pots containing greenhouse planting medium. Each pot contained only one plant species. The test compound was dissolved in a non-phytotoxic solvent and applied preemergence and/or postemergence to the plants. Preemergence applications were made within one day of planting the seeds or plant parts. Postemergence applications were applied when the plants were in the two to four leaf stage (three to twenty cm). Test chemicals were dissolved in a non-phytotoxic solvent and applied preemergence and postemergence to the plants. Untreated control plants and treated plants were placed in the greenhouse and visually evaluated for injury at 13 to 21 days after herbicide application. […] A dash (-) response indicates no test result.
# [2] = system: annual bluegrass; format: in vivo, Poa annua; settings: 0 to 100 scale
# Description: as §1
# [3] = system: bermudagrass; format: in vivo, Cynodon dactylon; settings: 0 to 100 scale
# Description: as §1
# [4] = system: broadleaf signalgrass; format: in vivo, Brachiaria plantaginea; settings: 0 to 100 scale
# Description: as §1
# [5] = system: common purslane; format: in vivo, Portulaca oleracea; settings: 0 to 100 scale
# Description: as §1
# [6] = system: common ragweed; format: in vivo, Ambrosia elatior; settings: 0 to 100 scale
# Description: as §1
# [7] = system: goosegrass; format: in vivo, Eleusine indica; settings: 0 to 100 scale
# Description: as §1
# [8] = system: guineagrass; format: in vivo, Panicum maximum; settings: 0 to 100 scale
# Description: as §1
# [9] = system: itchgrass; format: in vivo, Rottboellia exaltata; settings: 0 to 100 scale
# Description: as §1
# [10] = system: johnsongrass; format: in vivo, Sorghum halepense; settings: 0 to 100 scale
# Description: as §1
# [11] = system: large crabgrass; format: in vivo, Digitaria sanguinalis; settings: 0 to 100 scale
# Description: as §1
# [12] = system: peanut; format: in vivo, Arachis hypoagaea; settings: 0 to 100 scale
# Description: as §1
# [13] = system: pitted morningglory; format: in vivo, Ipomoea lacunosa; settings: 0 to 100 scale
# Description: as §1
# [14] = system: sandbur; format: in vivo, Cenchrus echinatus; settings: 0 to 100 scale
# Description: as §1
# [15] = system: smooth crabgrass; format: in vivo, Digitaria ischaemum; settings: 0 to 100 scale
# Description: as §1
# [16] = system: yellow nutsedge; format: in vivo, Cyperus esculentus; settings: Rate 125 g/ha, 0 to 100 scale
# Description: as §1
structure (smiles),measurement,setting,value
Fc1cc(Cl)c(OCc2ccccc2)cc1-c1nn2c(c1Cl)CCCC2 [Compound 22],"Plant response rating, Alfalfa Var.","[1]; POSTEMERGENCE, Rate 125 g/ha",0
same,"Plant response rating, Alfalfa Var.","[1]; POSTEMERGENCE, Rate 250 g/ha",0
same,"Plant response rating, Alfalfa Var.","[1]; PREEMERGENCE, Rate 125 g/ha",0
same,"Plant response rating, Alfalfa Var.","[1]; PREEMERGENCE, Rate 250 g/ha",0
same,"Plant response rating, Ann Bluegrass","[2]; POSTEMERGENCE, Rate 125 g/ha",0
same,"Plant response rating, Ann Bluegrass","[2]; POSTEMERGENCE, Rate 250 g/ha",0
same,"Plant response rating, Ann Bluegrass","[2]; PREEMERGENCE, Rate 125 g/ha",0
same,"Plant response rating, Ann Bluegrass","[2]; PREEMERGENCE, Rate 250 g/ha",0
same,"Plant response rating, Bermudagrass","[3]; POSTEMERGENCE, Rate 125 g/ha",20
same,"Plant response rating, Bermudagrass","[3]; POSTEMERGENCE, Rate 250 g/ha",0
same,"Plant response rating, Bermudagrass","[3]; PREEMERGENCE, Rate 125 g/ha",0
same,"Plant response rating, Bermudagrass","[3]; PREEMERGENCE, Rate 250 g/ha",0
same,"Plant response rating, Brdlf Sgnlgrass","[4]; POSTEMERGENCE, Rate 125 g/ha",0
same,"Plant response rating, Brdlf Sgnlgrass","[4]; POSTEMERGENCE, Rate 250 g/ha",0
same,"Plant response rating, Brdlf Sgnlgrass","[4]; PREEMERGENCE, Rate 125 g/ha",0
same,"Plant response rating, Brdlf Sgnlgrass","[4]; PREEMERGENCE, Rate 250 g/ha",0
same,"Plant response rating, Cmn Purslane","[5]; POSTEMERGENCE, Rate 125 g/ha",80
same,"Plant response rating, Cmn Purslane","[5]; POSTEMERGENCE, Rate 250 g/ha",70
same,"Plant response rating, Cmn Purslane","[5]; PREEMERGENCE, Rate 125 g/ha",0
same,"Plant response rating, Cmn Purslane","[5]; PREEMERGENCE, Rate 250 g/ha",0
same,"Plant response rating, Cmn Ragweed","[6]; POSTEMERGENCE, Rate 125 g/ha",70
same,"Plant response rating, Cmn Ragweed","[6]; POSTEMERGENCE, Rate 250 g/ha",20
same,"Plant response rating, Cmn Ragweed","[6]; PREEMERGENCE, Rate 125 g/ha",0
same,"Plant response rating, Cmn Ragweed","[6]; PREEMERGENCE, Rate 250 g/ha",0
same,"Plant response rating, Goosegrass","[7]; POSTEMERGENCE, Rate 125 g/ha",0
same,"Plant response rating, Goosegrass","[7]; POSTEMERGENCE, Rate 250 g/ha",0
same,"Plant response rating, Goosegrass","[7]; PREEMERGENCE, Rate 125 g/ha",0
same,"Plant response rating, Goosegrass","[7]; PREEMERGENCE, Rate 250 g/ha",0
same,"Plant response rating, Guineagrass","[8]; POSTEMERGENCE, Rate 125 g/ha",0
same,"Plant response rating, Guineagrass","[8]; POSTEMERGENCE, Rate 250 g/ha",0
same,"Plant response rating, Guineagrass","[8]; PREEMERGENCE, Rate 125 g/ha",0
same,"Plant response rating, Guineagrass","[8]; PREEMERGENCE, Rate 250 g/ha",0
same,"Plant response rating, Itchgrass","[9]; POSTEMERGENCE, Rate 125 g/ha",0
same,"Plant response rating, Itchgrass","[9]; POSTEMERGENCE, Rate 250 g/ha",0
same,"Plant response rating, Itchgrass","[9]; PREEMERGENCE, Rate 125 g/ha",0
same,"Plant response rating, Itchgrass","[9]; PREEMERGENCE, Rate 250 g/ha",0
same,"Plant response rating, Johnsongrass","[10]; POSTEMERGENCE, Rate 125 g/ha",0
same,"Plant response rating, Johnsongrass","[10]; POSTEMERGENCE, Rate 250 g/ha",0
same,"Plant response rating, Johnsongrass","[10]; PREEMERGENCE, Rate 125 g/ha",0
same,"Plant response rating, Johnsongrass","[10]; PREEMERGENCE, Rate 250 g/ha",0
same,"Plant response rating, Large Crabgrass","[11]; POSTEMERGENCE, Rate 125 g/ha",0
same,"Plant response rating, Large Crabgrass","[11]; POSTEMERGENCE, Rate 250 g/ha",0
same,"Plant response rating, Large Crabgrass","[11]; PREEMERGENCE, Rate 125 g/ha",0
same,"Plant response rating, Large Crabgrass","[11]; PREEMERGENCE, Rate 250 g/ha",0
same,"Plant response rating, Peanuts","[12]; POSTEMERGENCE, Rate 125 g/ha",0
same,"Plant response rating, Peanuts","[12]; POSTEMERGENCE, Rate 250 g/ha",0
same,"Plant response rating, Peanuts","[12]; PREEMERGENCE, Rate 125 g/ha",0
same,"Plant response rating, Peanuts","[12]; PREEMERGENCE, Rate 250 g/ha",0
same,"Plant response rating, Pit Morninglory","[13]; POSTEMERGENCE, Rate 125 g/ha",20
same,"Plant response rating, Pit Morninglory","[13]; POSTEMERGENCE, Rate 250 g/ha",0
same,"Plant response rating, Pit Morninglory","[13]; PREEMERGENCE, Rate 125 g/ha",0
same,"Plant response rating, Pit Morninglory","[13]; PREEMERGENCE, Rate 250 g/ha",0
same,"Plant response rating, S. Sandbur","[14]; POSTEMERGENCE, Rate 125 g/ha",0
same,"Plant response rating, S. Sandbur","[14]; POSTEMERGENCE, Rate 250 g/ha",0
same,"Plant response rating, S. Sandbur","[14]; PREEMERGENCE, Rate 125 g/ha",0
same,"Plant response rating, S. Sandbur","[14]; PREEMERGENCE, Rate 250 g/ha",0
same,"Plant response rating, Smooth Crabgras","[15]; POSTEMERGENCE, Rate 125 g/ha",0
same,"Plant response rating, Smooth Crabgras","[15]; POSTEMERGENCE, Rate 250 g/ha",0
same,"Plant response rating, Smooth Crabgras","[15]; PREEMERGENCE, Rate 125 g/ha",0
same,"Plant response rating, Smooth Crabgras","[15]; PREEMERGENCE, Rate 250 g/ha",0
same,"Plant response rating, Yellow Nutsedge",[16]; POSTEMERGENCE,0
same,"Plant response rating, Yellow Nutsedge",[16]; PREEMERGENCE,0
